The values that follow come from PMC12164026, “Plant-derived nodule-specific cysteine-rich peptides as potent antifungal agents against Cryptococcus neoformans: mechanisms of action, chimeric peptide enhancement, and immunomodulatory effects” (Current Research in Microbial Sciences, 2025).

In brackets after ≈: the same amount, converted by molar mass. Like-named read-outs stand apart in the source and are kept apart here. Peptide text beside a SMILES is read from it.

The subject of data set [1] is J774.2 mouse macrophage cells. Put plainly: Cytotoxicity, MTT assay. The class given is cell-based. Conditions: 25 µM, 3 h, X-VIVO medium; for reduction in macrophage viability: relative to untreated control. How it is done: J774.2 cells were cultured as described previously and seeded into microtiter plates at a density of 5 × 10⁴ cells per well. The cells were incubated at 37 °C under 5 % CO₂ and 95 % relative humidity in X-VIVO™ medium until they adhered to the plate surface. Following attachment, cells were treated with peptides at their respective MIC concentrations in X-VIVO medium for 3 h under the same incubation conditions.
After peptide treatment, cells were washed with PBS (phosphate-buffered saline) and incubated in X-VIVO™ medium supplemented with 0.5 mg/mL MTT reagent (3-[4,5-dimethylthiazol-2-yl]−2,5-diphenyltetrazolium bromide, Merck KGaA, Darmstadt, Germany). The MTT assay was used to evaluate cell viability by staining live cells, leading to the formation of formazan crystals. These crystals were dissolved in dimethyl sulfoxide (DMSO), and absorbance was measured at 570 nm using a SPECTROstar Nano plate reader (BMG LabTech, Offenburg, Germany). The absorbance of untreated control cells was set as 100 % viability, and experimental results were expressed relative to this control. Each experiment was conducted in at least three independent biological replicates to ensure statistical reliability.
For orientation: Tetrazolium dyes change colour on reduction, which living cells bring about.

Data set [2] deals with Cryptococcus neoformans IFM 5844. Put plainly: microbe, parasite or virus in culture. Conditions: five-fold diluted YNB + 1 % dextrose, 5 × 10^4 cells/mL, 30 °C, 72 h, OD 620 nm, ≥ 90 % growth inhibition, tested 25 to 0.39 µM, three biological replicates; read-out: MIC. The class given is cell-based. How it is done:
(§1) The susceptibility of Cryptococcus neoformans IFM 5844 to 20 peptides (Supplementary Table 1) was tested in a widely used synthetic medium to cultivate yeasts (YNB) and in a serum-free medium what is able to support the proliferation of macrophage cells (X-VIVO).
YNB medium: five-fold diluted Difco Yeast Nitrogen Base w/o Amino Acids medium (Becton, Dickinson and Company, Sparks, MD, USA) supplemented with 1 % dextrose
(§2) The minimal inhibitory concentration (MIC) of each peptide was determined by using micro-dilution assay. The C. neoformans suspensions were adjusted to 5 × 10^4 cells/mL concentration in either YNB or X-VIVO medium. A 96-well microtiter plate was prepared by adding 95 µL suspension per well followed by 5 µL of serially two-fold diluted peptide solutions achieving a final volume of 100 µl. The concentration of the peptides ranged from 25 to 0.39 µM. For control samples, 5 µL pure medium was added to the yeast cell suspension instead of peptides. Plates were incubated at 37 °C for 48 h in X-VIVO medium and 30 °C for 72 h in YNB medium. After incubation, optical density was measured at 620 nm using a SPECTROstar Nano plate reader (BMG LabTech, Offenburg, Germany). […] The experiments were carried out in three independent biological replicates.

For a further data set, the system named is C. neoformans cells. Put plainly: Effect of X1-NCR247C and calcofluor white on CFU. The data set is classed as cell-based, Cryptococcus neoformans. The conditions noted are these: calcofluor white 2.5 µg/mL alone, 20 min. How it is done: To assess the effect of X1-NCR247C peptide and calcofluor white, C. neoformans cells were subjected to different treatments. […] For staining, cells were treated with calcofluor white at 2.5 µg/mL for the same duration. As a control, cells were incubated only with calcofluor white for 20 min.
For combined treatment, cells were first exposed to calcofluor white (2.5 µg/mL) for 5 min, followed by the addition of X1-NCR247C (0.39 µM), and the incubation continued for 15 additional minutes. Following treatment, cells were washed once with sterile distilled water to remove residual peptide and dye. Serial 10-, 100-, 1000-, and 10,000-fold dilutions were prepared, and 50 µL from each dilution was plated onto solid YPD medium in triplicate. After 48 h of incubation at 30 °C, colony-forming units were counted to determine cell viability under each condition.

The subject of data set [3] is Cryptococcus neoformans IFM 5844. Briefly: Minimal fungicidal concentration (MFC) determination, spotting on YPD. The class given is cell-based. The conditions noted are these: cultures from MIC assays diluted and spotted onto solid YPD, 30 °C, 48 h. How it is done: Minimal fungicidal concentration (MFC) determination. To assess fungicidal activity, both control and peptide-treated cultures from the MIC assays were diluted 10-fold and 100-fold in sterile distilled water. Five µL from each dilution was then spotted onto solid YPD medium (1 % pepton, 1 % dextrose, 0.5 % yeast extract, 2 % agar). The plates were incubated at 30 °C for 48 h and fungal growth was evaluated. MFC was defined as the lowest peptide concentration at which no visible fungal growth was detected, indicating complete fungicidal activity.

The subject of data set [4] is C. neoformans IFM 5844 cells. Briefly: Cell membrane permeability, calcein-AM assay by flow cytometry. The class given is cell-based, Cryptococcus neoformans. The conditions noted are these: half-MIC, 2 h, 30 °C, YNB. How it is done: The effect of the peptides on the cell membrane permeability of C. neoformans IFM 5844 cells was checked by flow cytometry with calcein-AM assay ([Olson, et al., 2001]). Calcein-acetoxymethyl ester (calcein-AM) is a membrane-permeable live-cell dye that, upon entering the cell, is cleaved by intracellular esterases, converting it into calcein, a membrane-impermeable fluorescent marker. The assay was carried out by suspending a total of 1 × 10^7 cells in 100 µl YNB medium containing 20 µg/mL indomethacin (Sigma-Aldrich, Saint Louis, MO, USA) and incubating them at 30 °C for 30 min to inhibit calcein transporters. Following this pre-treatment, membrane-permeable calcein-AM (Invitrogen, Waltham, MA, USA) was added to a final concentration of 5 µg/mL, and the samples were incubated at 30 °C for 3 h allowing the calcein-AM to enter the cells where esterases converted it to fluorescent calcein. After incubation, cells were washed twice with sterile distilled water and subsequently exposed to peptides at half-MIC concentrations in YNB medium for 2 h at 30 °C. Following peptide treatment, cells were washed twice with sterile distilled water, and fluorescence intensity was measured using a FlowSight® flow cytometer (Amnis-EMD Millipore) equipped with a 488-nm excitation laser. Intact cells stained with calcein-AM but not exposed to peptides served as controls. To ensure statistical reliability, four independent experiments were conducted, and fluorescence intensity was recorded from 10,000 cells per sample during each experiment.

Data set [5] concerns Cryptococcus neoformans IFM 5844. The data set is classed as cell-based. The conditions noted are these: half-diluted X-VIVO 15 medium, 37 °C, 48 h, OD 620 nm, ≥ 90 % growth inhibition, tested 25 to 0.39 µM, three biological replicates. How it is done:
as §1
X-VIVO medium: half-diluted X-VIVO™ 15 cell culture medium (Lonza, Verviers, Belgium).
as §2

Regarding `CC[C@H](C)[C@H](NC(=O)[C@H](CCCCN)NC(=O)[C@H](CCCCN)NC(=O)[C@H](C)NC(=O)[C@H](CC(C)C)NC(=O)[C@H](C)NC(=O)[C@H](C)NC(=O)[C@H](CC(C)C)NC(=O)[C@H](C)NC(=O)[C@H](CCCCN)NC(=O)[C@H](CC(C)C)NC(=O)[C@H](CC(N)=O)NC(=O)[C@@H](NC(=O)[C@H](CCCCN)NC(=O)CNC(=O)[C@H](CC(C)C)NC(=O)[C@H](CC(C)C)NC(=O)[C@H](Cc1ccc(O)cc1)NC(=O)CNC(=O)[C@H](C)N)[C@@H](C)CC)C(=O)N[C@@H](CC(C)C)C(N)=O` [TP10, reference compound], the “macrophage viability compared to untreated control” value in data set [1] (p ≤ 0.01) is listed as “significantly reduced macrophage viability”. Moreover, in data set [2], the MIC amounted to 12.5 µM.
Regarding `O=S(=O)(O)c1cc(Nc2nc(Nc3ccccc3)nc(N(CCO)CCO)n2)ccc1/C=C/c1ccc(Nc2nc(Nc3ccccc3)nc(N(CCO)CCO)n2)cc1S(=O)(=O)O` [calcofluor white, reference compound], the “effect on CFU counts” value with C. neoformans cells is on record as “did not reduce CFU counts”.
For `CC[C@H](C)[C@H](NC(=O)[C@@H]1CCCN1C(=O)[C@@H](NC(=O)[C@H](CS)NC(=O)[C@H](Cc1ccc(O)cc1)NC(=O)[C@H](CO)NC(=O)[C@H](CCCCN)NC(=O)[C@H](CCCNC(=N)N)NC(=O)[C@H](CS)NC(=O)[C@H](CCCNC(=N)N)NC(=O)[C@@H](NC(=O)[C@H](CC(N)=O)NC(=O)[C@H](C)NC(=O)[C@H](CCCNC(=N)N)NC(=O)[C@H](CCCNC(=N)N)NC(=O)[C@H](CC(C)C)NC(=O)[C@@H](N)CCCCN)C(C)C)C(C)C)C(N)=O` [NCR335C17–33] (H-KLRRANVRCRKSYCVPI-NH2; N-terminus assumed), in data set [1], the “reduction in macrophage viability” value was found to be 15%. In addition, the “fungistatic or fungicide mode of action” value in data set [3] is listed as “fungicidal effect”. Besides, the “calcein leakage / membrane permeability disruption” value in data set [4] is on record as “highest calcein leakage”.
Take `CC[C@H](C)[C@H](NC(=O)[C@H](CS)NC(=O)CNC(=O)[C@H](CC(N)=O)NC(=O)[C@@H](N)CCCNC(=N)N)C(=O)N[C@H](C(=O)N[C@@H](CC(=O)O)C(=O)N1CCC[C@H]1C(=O)N[C@@H](CCCNC(=N)N)C(=O)N[C@@H](CS)C(=O)N1CCC[C@H]1C(=O)N[C@@H](Cc1ccc(O)cc1)C(=O)N[C@@H](CCC(N)=O)C(=O)N[C@@H](CCC(N)=O)C(=O)N[C@@H](CS)C(=O)N[C@@H](CCCNC(=N)N)C(=O)N[C@@H](CCCNC(=N)N)C(=O)N1CCC[C@H]1C(=O)N[C@@H](CC(C)C)C(=O)N[C@@H](Cc1ccc(O)cc1)C(=O)N[C@@H](CS)C(=O)N[C@@H](CCCNC(=N)N)C(=O)N[C@@H](CCCNC(=N)N)C(=O)N[C@@H](CCCNC(=N)N)C(N)=O)C(C)C` [NCR247] (H-RNGCIVDPRCPYQQCRRPLYCRRR-NH2; N-terminus assumed): the “reduction in macrophage viability” value in data set [1] is 25%. The “fungistatic or fungicide mode of action” value in data set [3] is given as “fungicidal effect”.
`CC[C@H](C)[C@H](NC(=O)[C@H](CCCCN)NC(=O)[C@H](CCCCN)NC(=O)[C@H](C)NC(=O)[C@H](CC(C)C)NC(=O)[C@H](C)NC(=O)[C@H](C)NC(=O)[C@H](CC(C)C)NC(=O)[C@H](C)NC(=O)[C@H](CCCCN)NC(=O)[C@H](CCCNC(=N)N)NC(=O)[C@H](CCCNC(=N)N)NC(=O)[C@H](CCCNC(=N)N)NC(=O)[C@H](CS)NC(=O)[C@H](Cc1ccc(O)cc1)NC(=O)[C@H](CC(C)C)NC(=O)[C@@H]1CCCN1C(=O)[C@H](CCCNC(=N)N)NC(=O)[C@H](CCCNC(=N)N)NC(=O)[C@H](CS)NC(=O)[C@H](CCC(N)=O)NC(=O)[C@@H](N)CCC(N)=O)C(=O)N[C@@H](CC(C)C)C(N)=O` [NCR247C-X2] (H-QQCRRPLYCRRRKALAALAKKIL-NH2; N-terminus assumed): the MIC turned out to be 1.56 µM (≈ 4.3 µg/mL) in data set [5] and 0.78 µM in data set [2]. The “fungistatic or fungicide mode of action” value in data set [3] was “fungicidal effect”. Also, the “calcein leakage / membrane permeability disruption” value in data set [4] is reported as “highest calcein leakage”. Also, in data set [4] (stained untreated control 75 %, four independent experiments), the “proportion of calcein-stained cells” value is reported as 8%.
Consider `CC[C@H](C)[C@H](NC(=O)[C@H](CCCCN)NC(=O)[C@H](CCCCN)NC(=O)[C@H](C)NC(=O)[C@H](CC(C)C)NC(=O)[C@H](C)NC(=O)[C@H](C)NC(=O)[C@H](CC(C)C)NC(=O)[C@H](C)NC(=O)[C@@H](N)CCCCN)C(=O)N[C@@H](CC(C)C)C(=O)N[C@@H](CCC(N)=O)C(=O)N[C@@H](CCC(N)=O)C(=O)N[C@@H](CS)C(=O)N[C@@H](CCCNC(=N)N)C(=O)N[C@@H](CCCNC(=N)N)C(=O)N1CCC[C@H]1C(=O)N[C@@H](CC(C)C)C(=O)N[C@@H](Cc1ccc(O)cc1)C(=O)N[C@@H](CS)C(=O)N[C@@H](CCCNC(=N)N)C(=O)N[C@@H](CCCNC(=N)N)C(=O)N[C@@H](CCCNC(=N)N)C(N)=O` [X2-NCR247C] (H-KALAALAKKILQQCRRPLYCRRR-NH2; N-terminus assumed), for which the values for the MIC in data set [5] and in data set [2] were 3.12 µM (≈ 8.6 µg/mL) and 0.78 µM, respectively. Further, the “fungistatic or fungicide mode of action” value in data set [3] is “fungicidal effect”. Also, the “calcein leakage / membrane permeability disruption” value in data set [4] was “highest calcein leakage”.
